Usually inhibition stands for the drop in the measured response relative to a control, in per cent.

The source of these data is US6613931B1 (priority 1999, dated 2003).

Test [1] concerns Lemna paucicostata. As to the kind of experiment: Herbicidal action: growth inhibition of duck weed (Lemna). Conditions: Lemna aequinoctialis, increase in leaf area after 8-10 days, 25° C., permanent light, read-out: Growth inhibition (% relative to the control). The test is classed as in vivo. How it is done: The herbicidal action of the compounds according to the invention is investigated using the representative test model below. The effect of the test substances on the growth of duck weed is determined by the following method:
The duct weed Lemna paucicostata was grown under sterile conditions and 250 ml glass vessels containing 100 ml of inorganic nutrient solution and supplemented with 1% sucrose, as described by Grossmann et al., Pesticide Science 35, (1992), 283-289. At the beginning of the test, 150 μl of a solution of active compound in acetone (stock solution: 100-fold concentrated) were pipetted into Petri dishes (diameter 6 cm, height 1.5 cm; Greiner, Frickenhausen) containing 15 ml of nutrient solution. (without added sucrose). Only the solvent component of the active compound solution was added to the nutrient solution for the control tests. Then, 4 Lemna plants were introduced into each dish, the dishes were covered with lids and incubated under permanent light conditions at 25° C. After 8-10 days, the increase in leaf area was determined using an imaging apparatus (Imago, Compulog Computer Syst., Böblingen) as growth parameter, and this was used to calculate the growth inhibition as a percentage relative to the control.

Test [2] relates to Plasmopara viticola. As to the kind of experiment: Fungicidal action: activity against Plasmopara viticola on grapevines (persistency). The format is in vivo. Conditions: grapevines c.v. Müller-Thurgau, inoculated 7 days after spraying, undersides of leaves assessed visually, untreated control 90. The text has this: Activity Against Plasmopara viticola
Leaves of potted grapevines c.v. “Müller-Thurgau” were sprayed to run off point with an aqueous preparation of active compound which had been prepared using a stock solution comprising 10% of active compound, 63% of cyclohexanone and 27% of emulsifier. In order to be able to assess the persistency of the substances, the plants were kept for 7 days in a greenhouse after the spray coating had dried on. Only then were the leaves inoculated with an aqueous zoospore suspension of Plasmopara viticola. The grapevines were then initially kept in a water vapor-saturated chamber at 24° C. for 48 hours and then in a greenhouse at 20 and 30° C. for 5 days. After this period of time, the plants were once more kept in a humid chamber for 16 hours to promote sporangiophore eruption. The extent of the infection on the undersides of the leaves was then determined visually.

In the case of `N#CC(C(=O)Nc1ccc(Cl)c(Cl)c1)c1ccccc1` (stereo not shown) [A, N-(3,4-dichlorophenyl)-2-cyano-2-phenylacetamide], the inhibition at 1 µM in test [1] (concentration 1 μmolar) came out at 40%. Also, in test [1] (concentration 10 μmolar), the inhibition at 10 µM is 93%. The inhibition at 100 µM in test [1] (concentration 100 μmolar) turned out to be 100%.
For the molecule `N#CC(C(=O)Nc1cccc(Cl)c1)c1ccccc1` (stereo not shown) [No. 2, N-(3-chlorophenyl)-2-cyano-2-phenylacetamide], the “% infection of the leaves after application of an aqueous preparation containing 250 ppm of active compound” value in test [2] came to 0%.
